Data set [1] is described as follows: xn = mol fraction of the nth substance listed. To be noted: 303.15 K, 101 kPa, Liquid.
The conditions of data set [2]: 303.15 K; 101 kPa; Liquid.

± gives the expanded uncertainty stated by the source.

With `CCCO` [propan-1-ol] + CC(C)OC(C)C, the mass density (usually the mass of a sample divided by its volume) in data set [1] (x2 = 0) is reported as 796.55 ± 0.6 kg/m3.
As for `CC(C)CC(C)(C)C` [2,2,4-trimethylpentane] + CCCO, the mass density is given as 683.74 ± 0.43 kg/m3 in data set [1] (x2 = 0); 685.75 ± 0.43 kg/m3 in data set [1] (x2 = 0.0484); 688.26 ± 0.43 kg/m3 in data set [1] (x2 = 0.0993); 694.24 ± 0.42 kg/m3 in data set [1] (x2 = 0.2038); 700.64 ± 0.42 kg/m3 in data set [1] (x2 = 0.2983); 708.63 ± 0.41 kg/m3 in data set [1] (x2 = 0.4). Further, the mass density is listed as 717.82 ± 0.41 kg/m3 in data set [1] (x2 = 0.5007); 728.33 ± 0.4 kg/m3 in data set [1] (x2 = 0.5989); 741.12 ± 0.39 kg/m3 in data set [1] (x2 = 0.6995); 756.21 ± 0.38 kg/m3 in data set [1] (x2 = 0.7998); 774.29 ± 0.36 kg/m3 in data set [1] (x2 = 0.8984); 785.01 ± 0.35 kg/m3 in data set [1] (x2 = 0.9502).
Take `CC(C)CC(C)(C)C` [2,2,4-trimethylpentane]: the mass density in data set [2] is 683.74 ± 0.43 kg/m3.
Turning to `CC(C)OC(C)C` [diisopropyl ether] + CC(C)CC(C)(C)C, the mass density in data set [1] (x1 = 0.0504) was 684.87 ± 0.43 kg/m3; in data set [1] (x1 = 0.102) it was 686.03 ± 0.43 kg/m3; in data set [1] (x1 = 0.1985), 688.29 ± 0.43 kg/m3; in data set [1] (x1 = 0.301), 690.84 ± 0.43 kg/m3; in data set [1] (x1 = 0.3996), 693.42 ± 0.43 kg/m3; in data set [1] (x1 = 0.5002), 696.27 ± 0.42 kg/m3. For the same compound, the mass density came out at 699.34 ± 0.42 kg/m3 in data set [1] (x1 = 0.6002); 702.6 ± 0.42 kg/m3 in data set [1] (x1 = 0.7009); 705.55 ± 0.41 kg/m3 in data set [1] (x1 = 0.7849); 709.78 ± 0.41 kg/m3 in data set [1] (x1 = 0.9013); 711.68 ± 0.41 kg/m3 in data set [1] (x1 = 0.9512); 713.51 ± 0.41 kg/m3 in data set [1] (x1 = 1).
Take `CC(C)OC(C)C` [diisopropyl ether]: the mass density in data set [2] was determined as 713.51 ± 0.76 kg/m3.
For the compound `CC(C)CC(C)(C)C` [2,2,4-trimethylpentane] + CC(C)OC(C)C, in data set [1] (x2 = 0), the mass density was 683.74 ± 0.43 kg/m3.
In the case of `CCCO` [propan-1-ol], the mass density in data set [2] came to 796.55 ± 0.6 kg/m3.
`CC(C)OC(C)C` [diisopropyl ether] + CCCO: the mass density was determined as 790.59 ± 0.61 kg/m3 in data set [1] (x1 = 0.0504); 785.96 ± 0.62 kg/m3 in data set [1] (x1 = 0.0991); 775.66 ± 0.64 kg/m3 in data set [1] (x1 = 0.2001); 766.52 ± 0.66 kg/m3 in data set [1] (x1 = 0.2994); 757.67 ± 0.68 kg/m3 in data set [1] (x1 = 0.4); 749.3 ± 0.69 kg/m3 in data set [1] (x1 = 0.5018). Besides, the mass density in data set [1] (x1 = 0.6006) stood at 741.73 ± 0.71 kg/m3; in data set [1] (x1 = 0.6995), 734.54 ± 0.72 kg/m3; in data set [1] (x1 = 0.7994) it was 727.46 ± 0.73 kg/m3; in data set [1] (x1 = 0.8981) it was 720.72 ± 0.75 kg/m3; in data set [1] (x1 = 0.9498), 717.2 ± 0.75 kg/m3; in data set [1] (x1 = 1), 713.51 ± 0.76 kg/m3.
For `CCCO` [propan-1-ol] + CC(C)CC(C)(C)C, the mass density in data set [1] (x1 = 1) is 796.55 ± 0.34 kg/m3.

The values above are taken from the NIST ThermoML archive (doi:10.1021/je700460w).
